Test results: patent US20250295610A1, “NEUROPROTECTIVE AGENTS FOR USE IN THE TREATMENT OF OPTIC NEUROPATHIES” (The Board of Trustees of the Leland Stanford Junior …, priority 2021, published 2025)
Entries after “also recorded” stand apart in the source; their conditions may differ.

What was measured:
[1] = system: CHOP promoter-driven luciferase (CHOP-Luc) in HEK293T cells; assay: CHOP-Luc reporter cell-based assay (HTS and retest); parameters: species or system human; details: Tm/Tg 1 μM; for CHOP-luciferase activity induced by ER stress (Tm/Tg): compound at 10 µM, relative to DMSO (FIG. 1d); for CHOP-luciferase activity: compound at 20 μM, 24 hours (FIG. 9e)
Method: ER stress reporter cell lines.
Cell-based HTS. The HTS to identify CHOP expression inhibitors was performed at the Stanford High-Throughput Bioscience Center with small molecule libraries containing 4846 total known bioactive, FDA approved drugs and clinical trial compounds; libraries included Biomol FDA, Biomol ICCB, Microsource (MS) Spectrum, Sigma LOPAC, and NIH Clinical Collection (NIH-CC). All the compounds were run in 7-point dose response based on a previous publication; except the NIH Clinical collection (446 compounds) which were tested in duplicate due to the small quantity of compounds on hand. Most of the NIH-CC was screened at 10 µM, but this varied per compound. […] We used the Pin Tool to transfer 100 nL of the compounds into 50 μL final volume. Therefore, we did a 500-fold dilution of the stock plates, which were at 10, 5, 2.5, 1.25, 0.625, 0.3125, and 0.156 mM resulting in final concentrations of 20, 10, 5, 2.5, 1.25, 0.625, and 0.3125 µM (for most of the compounds but not all). The final DMSO concentration was 0.2% for all wells. Briefly, CHOP-Luc cells were seeded in 384-well plates (Greiner Bio-One […]) at a density of 2×10^5 cells per well in 40 μL medium and cultured for 24 hours before treatment with tunicamycin (Tm)+thapsigargin (Tg) at 1 μM in 10 μL medium followed by adding 100 nL of one of the testing compounds using a Staccato SciClone ALH3000 small molecule liquid handling system (Caliper Life Sciences) and V&P Scientific 384 pin tools. AeraSeal sterile adhesive microplate seals (Excel Scientific; Victorville, CA) were used to seal plates that were incubated at 5% CO2, 37° C. for 24 hours, when luciferase activity was assayed by adding 10 μL of Bright™-Glo Luciferase reagent (Promega) to each well and detected by a Tecan Infinite M1000 Pro plate reader. Percentage of CHOP-Luc inhibition=100%−(Compound value−DMSO control value)/(Tm/Tg value−DMSO control value)×100%. The compounds achieving >30% of CHOP-Luc inhibition were considered as “hits”. Luciferase activity of all the tested compounds was determined by meta-analysis of luciferase activity in different cell lines under the control of a generic or other promoters. Any compound that appeared in more than 3 non-related luciferase screens was likely a toxic compound or luciferase inhibitor and therefore eliminated. There was no true cutoff, other than an IC50<20 µM (or the highest concentration tested).

[2] = system: RGC somata and axons, mouse ONC model; assay: Neuroprotection in traumatic ON crush (ONC) model; type: in vivo; details: for neuroprotection of RGCs and ONs: mouse ONC model, traumatic ON injury; for GCC thickness by OCT: mouse ONC, intravitreal 2 μl of 2 mM once + i.p. 15 mg/kg daily, vs DMSO
Method: ON crush model. The ON was exposed intraorbitally while care was taken not to damage the underlying ophthalmic artery, and crushed with a jeweler's forceps (Dumont #5; Fine Science Tools, Foster City, California) for 5 seconds approximately 0.5 mm behind the eyeball. Eye ointment containing neomycin (Akorn, Somerset, New Jersey) was applied to protect the cornea after surgery. For compound treatment, each eye received intravitreal injection with 2 μl of 2 mM test compounds once and intraperitoneal (i.p.) injection daily (15 mg/kg) for 14 days after ONC.

[3] = system: three UPR pathways induced by ER stress (Tm/Tg) in HEK293T cells; assay: UPR signaling cascades in HEK293T cells (immunoblot, RT-PCR, qPCR); type: cell-based, human; details: Tm/Tg 1 μM; for UPR pathways induced by ER stress: HEK293T cells, compound 10 μM; for XBP-1 mRNA splicing: RT-PCR
[4] = system: ONC-induced ER stress in RGCs; assay: ER stress molecules in RGCs and ONs after ON crush (ONC); details: mouse, after traumatic ON injury, in vivo application
Method: Protein Preparation and Immunoblotting. Cell and tissue lysates were prepared in RIPA buffer (Themo Fisher Scientific, 89901) and supplemented with Halt Protease inhibitor cocktail (Themo Fisher Scientific, PI78437). The total protein concentration of lysates was measured by the Pierce BCA Protein Assay Kit (Thermo Fisher Scientific, 23227). 20 μg protein of each sample were denatured at 95° C. for 15 min in 100 mM DTT+1× Laemmli buffer before being separated by SDS-PAGE. We then transferred the protein samples to 0.2 μm nitrocellulose membranes (Bio-Rad, 1610097) and blocked with 5% BSA for 2 hours. Subsequently, the membranes were incubated with primary antibodies (1:1000) overnight at 4° C. After washing in TBST, these membranes were incubated with horseradish peroxidase-conjugated secondary antibodies (Cell Signaling, 7074S and 7076S, 1:1000) and visualized using a GE-A1600 imaging system. Images were quantified with ImageJ software. The primary antibodies used were PERK (Cell Signaling, 3192S), p-PERK (Cell Signaling, 3179S), eIF2a (Cell Signaling, 5324S), p-eIF2a (Cell Signaling, 3597L), ATF4 (Cell Signaling, 11815S), CHOP (Cell Signaling, 2895S), ATF6 (Cell Signaling, 65880T), IRE1a (Cell Signaling, 3294T), IRE1 (phosphor-S724) (Thermo Fisher, PA116927), phospho-SAPK/JNK (Thr183/Tyr185) (Cell Signaling, 9251S), phospho-p38 MAPK (Thr180/Tyr182) (Cell Signaling, 9215S), β-Actin (sigma, A5441), XBP-1s (Biolegend, 647502), XBP-1 (Santa Cruz, sc-8501), anti-RBPMS (Custom made at ProSci Inc).
ON crush model. The ON was exposed intraorbitally while care was taken not to damage the underlying ophthalmic artery, and crushed with a jeweler's forceps (Dumont #5; Fine Science Tools, Foster City, California) for 5 seconds approximately 0.5 mm behind the eyeball. Eye ointment containing neomycin (Akorn, Somerset, New Jersey) was applied to protect the cornea after surgery. For compound treatment, each eye received intravitreal injection with 2 μl of 2 mM test compounds once and intraperitoneal (i.p.) injection daily (15 mg/kg) for 14 days after ONC. […]

[5] = system: visual function, mouse SOHU glaucoma model; assay: Visual function (PERG, OKR) in SOHU glaucoma model; type: in vivo; details: 3wpi, vs DMSO
Method: Control groups received the same volume of DMSO as vehicle control.
Pattern Electroretinogram (PERG) recording. After anesthetization and pupil dilation, PERG of both eyes was recorded simultaneously with the Miami PERG system (Intelligent Hearing Systems, Miami, Florida) according to manufacturer's instructions. Two consecutive recordings of 200 traces were averaged to achieve one readout; each trace recorded up to 1020 ms. The first positive peak in the waveform was designated as P1 and the second negative peak as N2. The amplitude was measured from P1 to N2.
Optokinetic Tracking Response (OKR). Mice were placed on a platform in the center of four 17-inch LCD computer monitors (Dell, Phoenix, AZ), with a video camera above the platform to capture the movement of the mouse. A rotating cylinder with vertical sine wave grating was computed and projected to the four monitors by OptoMotry software (Cere-bralMechanics Inc, Lethbridge, Alberta, Canada). […] The maximum frequency (cycle/degree) that the mouse could track was identified and recorded by investigators masked to treatment. The relative percentages of visual acuity were calculated as the ratio of maximum frequency in disease eye compared to contralateral control eye.

[6] = system: XBP-1-Luc HEK293T reporter cell line (IRE1α activity and XBP-1 splicing); details: Tm/Tg 1 μM, 24 hours
[7] = mouse, 6 and 24 hours after injection
Method: Retinal tissues were homogenized with 100 μL of pre-chilled 20% acetonitrile and then diluted 2-fold with blank mouse plasma. An aliquot of 20 μL of diluted retina homogenate was extracted with 100 μL of methanol: acetonitrile (5:95, v: v) containing the internal standard (Verapamil). The mixture was shaken on a shaker for 15 minutes and then centrifuged at 3220 g for 15 minutes. An aliquot of 70 μL of the supernatant was mixed with 70 μL of water for the injection to the LC-MS. Calibration standards and quality control samples were prepared by spiking 2 μL of the test compound into 18 μL of blank mouse plasma, and the resulting plasma was processed with the unknown samples in the same batch. The extracts were analyzed by a Shimadzu LC-30AD interfaced to a Sciex API 5000 system. The extracts were injected onto an ACE 3 C18 column (50×2.1 mm, 3.0 μm) and separated by the gradient elution using water with 10 mM ammonium acetate (A) and acetonitrile with 0.1% formic acid (B) as mobile phases. The gradient program started at 10% B, held for 0.2 min, ramped to 95% B at 1.5 min, remained at 95% at 2.4 min, dropped to 10% B at 2.45 min, and stayed at 10% B till 3.2 min. […] The calibration curve fitted by linear regression was used to quantify the analytes in the matrix using Analyst software 1.6.2 (Sciex).

HEK293T cells = HEK293T cells expressing jGCaMP7s, Tm/Tg 1 μM
Method: HEK293T cells were seeded at 10% confluence the day before transfection in poly-D-lysin-coated glass bottom 35 mm dishes (MatTek, P35GC1.510C). Two hours prior to transfection, media was removed and 1 mL of FBS-free DMEM media was added to each well. We then mixed 2 μg of the jGCaMP7s plasmid in 100 μl DMEM. In a separate tube, we diluted 4 μl PolyJet™ (SignaGen Laboratories, SL100688) reagent in 100 μl with DMEM, and incubate for 10 minutes. The complete mixture of DNA and PolyJet was incubated for another 15 min before being added to the HEK293T cells. Six hours later, the media was changed to 1 ml/well culture media. The next day, cytosolic Ca^2 + was imaged in cells transiently transfected with jGCaMP7s through a Zeiss LSM 800 confocal microscope. Dynamic intracellular Ca^2 + influx in response to Tm/Tg-induced ER stress was measured every 10 seconds for 100 seconds before Tm/Tg treatment to acquire baseline fluorescence (F0) and for 400 seconds after Tm/Tg administration to acquire F1. ΔF=F1−F0. Data were analyzed with ImageJ.

RGCs expressing jGCaMP7s = details: living mice, SLO, early and later time points after ONC
Method: In vivo RGC Ca^2 + imaging with SLO. The mice were intravitreally injected with AAV2-mSncg-jGCaMP7s (9×10^9 vg/retina) 4 weeks before imaging. The mice were anesthetized by xylazine and ketamine after dark adaptation for 30 minutes. Mydriasis was achieved by applying a drop of 1% tropicamide solution and a drop of 2.5% phenylephrine hydrochloride solution, which prevents pupillary contraction during recording. Right after ON crush, the mice were placed on a 3D-printed mouse holder with a 37° C. heater, and a custom-made+10D mouse contact lens (3.0 mm diameter, 1.6 mm BC, PMMA clear, Advanced Vision Technologies) attached to keep the cornea from drying. The retinal fundus was imaged by the Heidelberg Spectralis SLO/OCT system (Heidelberg Engineering, Germany) with a 55° lens using the fluorescein angiography scanning mode under the same sensitivity (sensitivity 75-85) and high-resolution (1536×1536 pixels).

RGCs expressing D4ER = details: mouse retina explants after ONC
Method: Ex vivo ER Ca^2 + imaging in retina explants. ER calcium levels were measured using the Forster resonance energy transfer (FRET)-based ER targeted calcium sensor, D4ER. […] For imaging, retinas were dissected out at 3, 7 or 14dpc and plated onto laminin (Sigma, L2020) and poly-D-lysin-coated glass bottom dishes (MatTek, P35GC1.510C) and maintained in Neurobasal-A medium (ThermoFisher Scientific, 10888022) supplemented with L-glutamine (Gibco, 25030-081), penicillin/streptomycin (Gibco, 15140122) and B-27 (ThermoFisher Scientific, 0080085SA). Retina explants were imaged using a Zeiss LSM 800 microscope. ER [Ca^2 +] levels were determined by exciting D4ER at 440 nm to record the emitted light at 465-485 nm and 530-550 nm, and analyzed with ImageJ.

[8] = system: naïve mouse retinas and ON; details: one month after systemic administration
Method: Immunohistochemistry of whole mount and cross sections of retina. After perfusion fixation with 4% PFA in PBS, mice eyeballs and ONs were dissected out and post-fixed with 4% PFA for 2 hours at room temperature. Retinas were dissected out for whole mount retina immunostaining. For cryo-section with Leica cryostat, the eyeballs and ONs were embedded in tissue-tek OCT (Sakura) on dry ice for subsequent cryo-section. The sections were blocked with 10% goat serum (Sigma, G9023) for 2 hours before incubating with primary antibodies: RBPMS 1:4000, others 1:200 overnight at 4° C. […]
RGC counting. Whole-mount retinas were immunostained with the RBPMS antibody, 6-8 fields randomly sampled from peripheral regions of each retina using a 40× lens with a Zeiss M2 epifluorescence microscope, and RBPMS+RGCs counted by Volocity software (Quorum Technologies). The percentage of RGC survival was calculated as the ratio of surviving RGC numbers in injured eyes compared to contralateral uninjured eyes. The investigators who counted the cells were masked to the treatment of the samples.
ON semi-thin sections and quantification of surviving axons. […] Two areas of 21.4 μm×29.1 μm were cropped from the center of each image, and the surviving axons within the designated areas counted manually using ImageJ. […]

[9] = system: CHO luciferase reporter cell line driven by murine CHOP promoter; details: different CHO luciferase reporter cell line; cited from earlier work
[10] = HEK293T, immunoblot, 10 μM, 24 hours

Row | SMILES | CHOP-luciferase activity induced by ER stress (Tm/Tg) ([1]; 24 hours) | neuroprotection of RGCs and ONs [2] | CHOP-luciferase activity [1] | UPR pathways induced by ER stress [3] | RGC ER stress [4] | GCC thickness by OCT ([2]; 14dpc) | other results
1 | Cn1cc(-c2ccc3c(c2)CCN3C(=O)Cc2cccc(C(F)(F)F)c2)c2c(N)ncnc21 [GSK2606414] |  |  |  |  |  |  | CHOP-luciferase activity induced by Tm/Tg, reference compounds ([1]; FIG. 1d and FIG. 9e (10 µM and 20 μM), 24 hours): significantly inhibited
2 | O=C(COc1ccc(Cl)cc1)NC1CCC(NC(=O)COc2ccc(Cl)cc2)CC1 (stereo not drawn) [ISRIB] | no effect; also recorded: did not have a significant inhibition effect | provided neuroprotection in the ONC mouse model, to a lesser degree than maprotiline; also recorded: significant neuroprotection |  |  |  |  | 
3 | COc1ccc2c(c1)CC[C@@H]1[C@@H]2CC[C@]2(C)[C@@H](NCCCCCCN3C(=O)C=CC3=O)CC[C@@H]12 [U-73122] |  |  |  |  |  |  | protection of RGC axons ([2]; mouse, after ONC injury, 14dpc): protected; protection of RGC somata ([2]; mouse, after ONC injury, 14dpc): protected
4 | CN(C)CCC=C1c2ccccc2CCc2ccccc21 [amitriptyline] |  |  | inhibited |  |  |  | 
5 | Clc1ccc2c(c1)C(N1CCNCC1)=Nc1ccccc1O2 [amoxapine] | significantly inhibited | significantly protects |  | inhibit all three UPR pathways | effectively inhibits | significantly thicker | XBP-1 mRNA splicing ([3]; HEK293T, 10 μM, 24 hours): significantly inhibited
6 | CN(C)CCCN1c2ccccc2CCc2ccc(Cl)cc21 [clomipramine] |  |  | inhibited |  |  |  | 
7 | CNCCCN1c2ccccc2CCc2ccccc21 [desipramine] |  |  | inhibited |  |  |  | 
8 | Clc1ccc2c(c1)CCc1cccnc1C2=C1CCNCC1 [desloratadine] |  | significantly protects |  | inhibit all three UPR pathways | effectively inhibits | significantly thicker | JNK phosphorylation [3, 10]: significantly inhibited
9 | CNCCCC12CCC(c3ccccc31)c1ccccc12 [maprotiline] | significantly inhibited | significantly protects |  | inhibit all three UPR pathways | effectively inhibits | significantly thicker | downstream genes of UPR at the mRNA levels (qPCR) ([3]; HEK293T, 12 hours, 10 µM): the most striking modulation; XBP-1 mRNA splicing ([3]; HEK293T, 10 μM, 24 hours): significantly inhibited; IRE1α phosphorylation [3, 10]: inhibited; JNK phosphorylation [3, 10]: significantly inhibited; amplitude of PERG [5]: improved; visual acuity (OKR) [5]: improved; XBP-1 splicing induced by Tm/Tg (XBP-1s-Luc) [6]: dose-dependent inhibition; maprotiline in the retina after i.p. injection (LC-MS) [7]: presence of maprotiline in the retina; Tm/Tg-induced intracellular Ca2+ influx (HEK293T cells): significantly blocked; intra-RGC Ca2+ levels after ONC (RGCs expressing jGCaMP7s): significantly decreased; ER Ca2+ concentration of RGCs after ONC (D4ER FRET) (RGCs expressing D4ER): maintained ER Ca^2 + concentration at much higher levels; RGC or ON degeneration [8]: no RGC or ON degeneration; immune cell infiltration in retina and ON [8]: no immune cell infiltration
10 | CN1CCN(CCCN2c3ccccc3Sc3ccc(C(F)(F)F)cc32)CC1 [trifluoperazine] |  |  | inhibited |  |  |  | CHOP inhibitor in a previous study [9]: CHOP inhibitor
